The subject of series [1] is MV4-11 AML cells. In words: 72-hour cell proliferation assay and combination index analysis, MV4-11. Format: cell-based, human. The conditions noted are these: with single sub-IC50 dose of FLT3 inhibitor Compound A (50 nM).
Series [2] has as its system MV4-11 cells. In words: Annexin V staining (apoptosis) in MV4-11 cells. Conditions: combination (fixed ratio 4:1) versus agent alone, 48 hours. Format: cell-based, human. From the text: The ultimate goal of treatment for FLT3 related disorders is to kill the disease causative cells and to cause regression of disease. […] Annexin V binding to phosphotidyl serine that has translocated from the inner leaflet of the plasma membrane to the outer leaflet of the plasma membrane and is a well established way to measure apoptosis of cells. See van Engeland M., L. J. Nieland, et al. (1998) “Annexin V-affinity assay: a review on an apoptosis detection system based on phosphatidylserine exposure.” Cytometry. 31(1):1-9.
After the compound incubations, treated cells were harvested and stained with Annexin V-PE and 7-AAD using the Guava Nexin apoptosis kit according to the protocol in the Biological Activity Measurements section hereafter. Annexin V staining peaks at 60% because cells late in apoptosis begin to fall apart and are considered debris. […] Statistical analysis using the above described method of Chou and Talalay was also performed to determine the synergy of the combination. […] The magnitude of the synergistic induction of apoptosis of MV4-11 cells by the combination of an FTI and a FLT3 inhibitor could not be predicted by those skilled in the art. […]
Annexin V Staining. […] All annexin positive cells were considered apoptotic and percent Annexin positive cells was calculated.

The test system of series [3] is MV4-11 tumor xenografts. Description: MV4-11 human tumor xenograft regression model in nude mice. The series is classed as in vivo. The conditions noted are these: 50 mg/kg bid oral. Here is the method: Female athymic nude mice (CD-1, nu/nu, 9-10 weeks old) were obtained from Charles River Laboratories (Wilmington, Mass.) and were maintained according to NIH standards. All mice were group housed (5 mice/cage) under clean-room conditions in sterile micro-isolator cages on a 12-hour light/dark cycle in a room maintained at 21-22° C. and 40-50% humidity. Mice were fed irradiated standard rodent diet and water ad libitum. All animals were housed in a Laboratory Animal Medicine facility that is fully accredited by the American Association for Assessment and Accreditation of Laboratory Animal Care (AAALAC). […]
The time course of the inhibitory effects of FLT3 inhibitor compounds on the growth of MV4-11 tumors is illustrated in FIG. 1. […] Percent inhibition (% 1) of tumor growth was calculated versus tumor growth in the vehicle-treated Control group on the last study day. Statistical significance versus Control was determined by Analysis of Variance (ANOVA) followed by Dunnett's t-test: * p<0.05; ** p<0.01.
(See FIG. 2). […] Percent Inhibition was calculated versus the mean tumor weight in the vehicle-treated control group. Statistical significance versus Control was determined by ANOVA followed by Dunnett's t-test: ** p<0.01. […]

The conditions of series [4]: either agent alone or in combination. Here is the method: Mice were dosed orally by gavage with vehicle (control group) or compound at various doses twice-daily (b.i.d.) during the week and once-daily (q.d.) on weekends. Dosing was continued for 11 consecutive days, depending on the kinetics of tumor growth and size of tumors in vehicle-treated control mice. If tumors in the control mice reached 10% of body weight (˜2.0 grams), the study was to be terminated. […] During the study, tumor growth was measured three times-a-week (M, W, F) using electronic Vernier calipers. Tumor volume (mm^3) was calculated using the formula […], where L=length (mm) and W=width (shortest distance in mm) of the tumor. […] Mice were closely examined daily at each dose for overt clinical signs of adverse, drug-related side effects. […]
If tumors in the control mice reached ˜10% of body weight (˜2.0 grams), the study was to be terminated. […] During the study, tumor growth was measured three times-a-week (M, W, F) using electronic Vernier calipers. […] Body weight was measured three times-a-week and a loss of body weight >10% was used as an indication of lack of compound tolerability. […]
Dosing was continued for sixteen consecutive days. Tumor growth was measured three times-a-week (Monday, Wednesday, Friday) using electronic Vernier calipers. Body weight was measured three times-a-week and a loss of body weight >10% was used as an indication of lack of compound tolerability.

Read-outs that look alike come from different tables or passages of the source.

`Cn1cncc1C(N)(c1ccc(Cl)cc1)c1ccc2c(c1)c(-c1cccc(Cl)c1)cc(=O)n2C` (single isomer, unassigned; (+)) [Tipifarnib, (+)-6-[amino(4-chlorophenyl)(1-methyl-1H-imidazol-5-yl)methyl]-4-(3-chlorophenyl)-1-methyl-2(1H)-quinolinone]: the “increase in potency of Tipifarnib” value in series [1] is “more than 3 fold”. The “shift of EC50 for the induction of annexin V staining” value in series [2] is reported as “more than eight-fold”. Further, the “effect on tumor growth as single agent” value in series [3] (9 days) and in series [3] (16 days) was “ineffective” throughout. For the same compound, the overt toxicity entry in series [4] (9-day treatment) and in series [4] (16-day treatment) was “No overt toxicity” in each case.

(Values after patent US20060281755A1, “SYNERGISTIC MODULATION OF FLT3 KINASE USING AMINOPYRIMIDINES KINASE MODULATORS” (priority 2005, published 2006).)
